Measured values: patent publication US7544707B2, “Bicyclic derivatives as PPAR modulators” (Eli Lilly and Company, priority 2003, dated 2009)

SMILES | melting point
Cc1cc(SC(C)(C)c2cccc3cn(-c4ccc(C(F)(F)F)cc4)nc23)ccc1CCC(=O)O [Example 15, 3-(2-Methyl-4-{1-methyl-1-[2-(4-trifluoromethylphenyl)-2H-indazol-7-yl]ethylsulfanyl}phenyl)propionic Acid] | 68 to 70 °C
Cc1cc(SC(C)c2cccc3cn(-c4ccc(C(F)(F)F)cc4)nc23)ccc1OCC(=O)O (racemic) [Example 8, (+/−)-2-Methyl-4-{1-[2-(4-trifluoromethylphenyl)-2H-indazol-7-yl]ethylsulfanyl}phenoxyacetic Acid] | 62 to 64 °C
Cc1cc(SC(C)c2ccc3nn(-c4ccc(C(F)(F)F)cc4)cc3c2)ccc1OC(C)(C)C(=O)O (racemic) [Example 69, (+/−)-2-Methyl-2-(2-methyl-4-{1-[2-(4-trifluoromethylphenyl)-2H-indazol-5-yl]ethylsulfanyl}phenoxy)propionic Acid] | 70 to 72 °C
CC(C)(Sc1ccc(OCc2cccc3cnn(-c4ccc(C(F)(F)F)cc4)c23)cc1)C(=O)O [Example 97, 2-Methyl-2-{4-[1-(4-trifluoromethylphenyl)-1H-indazol-7-ylmethoxy]phenylsulfanyl}propionic Acid] | 214 to 216 °C
O=C(O)Cc1csc2cc(OCc3ccc4cn(-c5ccc(C(F)(F)F)cc5)nc4c3)ccc12 [Example 25, {6-[2-(4-Trifluoromethylphenyl)-2H-indazol-6-ylmethoxy]benzo[b]thiophen-3-yl}acetic Acid] | 240 to 242 °C
CCc1cc(SC(C)(C)c2cccc3cn(-c4ccc(C(F)(F)F)cc4)nc23)ccc1OCC(=O)O [Example 16, 2-Ethyl-4-{1-methyl-1-[2-(4-trifluoromethylphenyl)-2H-indazol-7-yl]ethylsulfanyl}phenoxyacetic Acid] | 114 to 116 °C
CCc1cc(SCc2ccc3cn(-c4ccc(C(F)(F)F)cc4)nc3c2)ccc1OCC(=O)O [Example 21, 2-Ethyl-4-[2-(4-trifluoromethylphenyl)-2H-indazol-6-ylmethylsulfanyl]phenoxyacetic Acid] | 119 to 121 °C
Cc1cc(SC(C)c2cccc3cn(-c4ccc(C(F)(F)F)cc4)nc23)ccc1OC(C)(C)C(=O)O (racemic) [Example 41, (+/−)-2-Methyl-2-(2-methyl-4-{1-[2-(4-trifluoromethylphenyl)-2H-indazol-7-yl]ethylsulfanyl}phenoxy)propionic Acid] | 140 to 142 °C
Cc1cc(OC(C)c2cccc3nn(-c4ccc(C(F)(F)F)cc4)cc23)ccc1OC(C)(C)C(=O)O (racemic) [Example 74, (+/−)-2-Methyl-2-(2-methyl-4-{1-[2-(4-trifluoromethylphenyl)-2H-indazol-4-yl]ethoxy}phenoxy)propionic Acid] | 130 to 132 °C
O=C(O)Cc1cccc(SCc2cccc3cn(-c4ccc(C(F)(F)F)cc4)nc23)c1 [Example 4, 3-[2-(4-Trifluoromethylphenyl)-2H-indazol-7-ylmethylsulfanyl]phenylacetic Acid] | 147 to 149 °C
CC(C)(Sc1ccc(OCc2ccc3nn(-c4ccc(C(F)(F)F)cc4)cc3c2)cc1)C(=O)O [Example 62, 2-Methyl-2-{4-[2-(4-trifluoromethylphenyl)-2H-indazol-5-ylmethoxy]phenylsulfanyl}propionic Acid] | 192 to 194 °C
CC(Oc1ccc(OC(C)(C)C(=O)O)cc1)c1cccc2cn(-c3ccc(C(F)(F)F)cc3)nc12 (racemic) [Example 44, (+/−)-2-Methyl-2-(4-{1-[2-(4-trifluoromethylphenyl)-2H-indazol-7-yl]ethoxy}phenoxy)propionic Acid] | 130 to 132 °C
CC(Sc1ccc(OC(C)(C)C(=O)O)cc1)c1cccc2c1cnn2-c1ccc(C(F)(F)F)cc1 (racemic) [Example 86, (+/−)-2-Methyl-2-(4-{1-[1-(4-trifluoromethylphenyl)-1H-indazol-4-yl]ethylsulfanyl}phenoxy)propionic Acid] | 85 to 90 °C
CC(Oc1ccc(SC(C)(C)C(=O)O)cc1)c1cccc2nn(-c3ccc(C(F)(F)F)cc3)cc12 (racemic) [Example 76, (+/−)-2-Methyl-2-(4-{1-[2-(4-trifluoromethyl-phenyl)-2H-indazol-4-yl]ethoxy}phenylsulfanyl)propionic Acid] | 138 to 140 °C
O=C(O)Cc1csc2cc(SCc3ccc4cn(-c5ccc(C(F)(F)F)cc5)nc4c3)ccc12 [Example 23, 6-[2-(4-Trifluoromethylphenyl)-2H-indazol-6-ylmethylsulfanyl]benzo[b]thiophen-3ylacetic Acid] | 194 to 196 °C
CC(Oc1ccc(OC(C)(C)C(=O)O)cc1)c1ccc2cn(-c3ccc(C(F)(F)F)cc3)nc2c1 (racemic) [Example 58, (+/−)-2-Methyl-2-(4-{1-[2-(4-trifluoromethylphenyl)-2H-indazol-6-yl]ethoxy}phenoxy)propionic Acid] | 144 to 146 °C
CC(C)(Oc1ccc(OC(CCC(F)(F)F)c2cccc3c2cnn3-c2ccc(C(F)(F)F)cc2)cc1)C(=O)O (racemic) [Example 90, (+/−)-2-Methyl-2-(4-{4,4,4-trifluoro-1-[1-(4-trifluoromethylphenyl)-1H-indazol-4-yl]butoxy}phenoxy)propionic Acid] | 175 to 180 °C

SMILES | melting point
CCc1cc(SC(C)c2cccc3cn(-c4ccc(C(F)(F)F)cc4)nc23)ccc1OCC(=O)O (racemic) [Example 10, (+/−)-2-Ethyl-4-{1-[2-(4-trifluoromethylphenyl)-2H-indazol-7-yl]ethylsulfanyl}phenoxyacetic Acid] | 65 to 67 °C
O=C(O)Cc1csc2cc(SCc3cccc4cn(-c5ccc(C(F)(F)F)cc5)nc34)ccc12 [Example 5, 6-[2-(4-Trifluoromethylphenyl)-2H-indazol-7-ylmethylsulfanyl]benzo[b]thiophen-3-ylacetic Acid] | 141 to 143 °C
CCc1cc(OCc2cccc3cn(-c4ccc(C(F)(F)F)cc4)nc23)ccc1CCC(=O)O [Example 7, 3-{2-Ethyl-4-[2-(4-trifluoromethylphenyl)-2H-indazol-7-ylmethoxy]phenol}propionic Acid] | 157 to 159 °C
CC(C)(Sc1ccc2c(CC(=O)O)csc2c1)c1cccc2cn(-c3ccc(C(F)(F)F)cc3)nc12 [Example 17, 6-{1-Methyl-1-[2-(4-trifluoromethylphenyl)-2H-indazol-7-yl]ethylsulfanyl}benzo[b]thiophen-3-ylacetic Acid] | 120 to 122 °C
Cc1cc(SCc2cccc3nn(-c4ccc(C(F)(F)F)cc4)cc23)ccc1OC(C)(C)C(=O)O [Example 71, 2-Methyl-2-{2-methyl-4-[2-(4-trifluoromethylphenyl)-2H-indazol-4-ylmethylsulfanyl]phenoxy}propionic Acid] | 125 to 127 °C
Cc1cc(SCc2cccc3nn(-c4ccc(C(F)(F)F)cc4)cc23)ccc1OCC(=O)O [Example 26, 2-Methyl-4-[2-(4-trifluoromethylphenyl)-2H-indazol-4-ylmethylsulfanyl]phenoxyacetic Acid] | 105 to 108 °C
Cc1cc(SC(C)c2cccc3nn(-c4ccc(C(F)(F)F)cc4)cc23)ccc1OC(C)(C)C(=O)O (racemic) [Example 72, (+/−)-2-Methyl-2-(2-methyl-4-{1-[2-(4-trifluoromethylphenyl)-2H-indazol-4-yl]ethylsulfanyl}phenoxy)propionic Acid] | 153 to 155 °C
CC(Sc1ccc(OC(C)(C)C(=O)O)cc1)c1ccc2nn(-c3ccc(C(F)(F)F)cc3)cc2c1 (racemic) [Example 68, (+/−)-2-Methyl-2-(4-{1-[2-(4-trifluoromethylphenyl)-2H-indazol-5-yl]ethylsulfanyl}phenoxy)propionic Acid] | 109 to 111 °C
Cc1cc(OC(C)c2ccc3nn(-c4ccc(C(F)(F)F)cc4)cc3c2)ccc1OC(C)(C)C(=O)O (racemic) [Example 66, (+/−)-2-Methyl-2-(2-methyl-4-{1-[2-(4-trifluoromethylphenyl)-2H-indazol-5-yl]ethoxy}phenoxy)propionic Acid] | 129 to 131 °C
Cc1cc(SCc2cccc3nn(-c4ccc(C(F)(F)F)cc4)cc23)ccc1CCC(=O)O [Example 28, 3-{2-Methyl-4-[2-(4-trifluoromethylphenyl)-2H-indazol-4-ylmethylsulfanyl]phenyl}propionic Acid] | 55 to 59 °C
CC(C)(Oc1ccc(SCc2ccc3nn(-c4ccc(C(F)(F)F)cc4)cc3c2)cc1)C(=O)O [Example 63, 2-Methyl-2-{4-[2-(4-trifluoromethylphenyl)-2H-indazol-5-ylmethylsulfanyl]phenoxy}propionic Acid] | 159 to 161 °C
Cc1cc(SC(C)c2cccc3c2cnn3-c2ccc(C(F)(F)F)cc2)ccc1OC(C)(C)C(=O)O (racemic) [Example 83, (+/−)-2-Methyl-2-(2-methyl-4-{1-[1-(4-trifluoromethylphenyl)-1H-indazol-4-yl]ethylsulfanyl}phenoxy)propionic Acid] | 85 to 87 °C
Cc1cc(SC(c2ccccc2)c2cccc3c2cnn3-c2ccc(C(F)(F)F)cc2)ccc1OC(C)(C)C(=O)O (racemic) [Example 92, (+/−)-2-Methyl-2-(2-methyl-4-{phenyl-[1-(4-trifluoromethylphenyl)-1H-indazol-4-yl]methylsulfanyl}phenoxy)propionic Acid] | 181 to 186 °C
Cc1cc(OCCc2cccc3cn(-c4ccc(C(F)(F)F)cc4)nc23)ccc1OC(C)(C)C(=O)O [Example 48, 2-Methyl-2-(2-methyl-4-{2-[2-(4-trifluoromethylphenyl)-2H-indazol-7-yl]ethoxy}phenoxy)propionic Acid] | 133 to 135 °C
CC(Oc1ccc(OC(C)(C)C(=O)O)cc1)c1ccc2nn(-c3ccc(C(F)(F)F)cc3)cc2c1 (racemic) [Example 70, (+/−)-2-Methyl-2-(4-{1-[2-(4-trifluoromethylphenyl)-2H-indazol-5-yl]ethoxy}phenoxy)propionic Acid] | 152 to 154 °C
CCc1cc(SCc2cccc3c2cnn3-c2ccc(C(F)(F)F)cc2)ccc1OCC(=O)O [Example 31, 2-Ethyl-4-[1-(4-trifluoromethylphenyl)-1H-indazol-4-ylmethylsulfanyl]phenoxyacetic Acid] | 122 to 124 °C
